Tests used:
[1] = target: Enteropeptidase (Homo sapiens) (UniProt P98073); assay: Inhibition of full length recombinant human EP expressed in CHO cells assessed as protease activity using […] as substrate at 0.1 uM by fluorescence assay relative to control; set-up: scale not given: the % may be the effect or the level left
[2] = target: Enteropeptidase (Homo sapiens) (UniProt P98073); assay: Inhibition of full length recombinant human EP expressed in CHO cells assessed as protease activity using […] as substrate at 1 uM by fluorescence assay relative to control; set-up: scale not given: the % may be the effect or the level left
[3] = target: Enteropeptidase (Homo sapiens) (UniProt P98073); assay: Inhibition of full length recombinant human EP expressed in CHO cells assessed as protease activity using […] as substrate at 10 uM by fluorescence assay relative to control; set-up: scale not given: the % may be the effect or the level left
Bos taurus [4] = species on record: Bos taurus; assay: Inhibition of bovine trypsin assessed as protease activity using D-CHA-AR-AMC as substrate at 0.1 uM by fluorescence assay relative to control; set-up: scale not given: the % may be the effect or the level left
Bos taurus [5] = species on record: Bos taurus; assay: Inhibition of bovine trypsin assessed as protease activity using D-CHA-AR-AMC as substrate at 1 uM by fluorescence assay relative to control; set-up: scale not given: the % may be the effect or the level left
Bos taurus [6] = species on record: Bos taurus; assay: Inhibition of bovine trypsin assessed as protease activity using D-CHA-AR-AMC as substrate at 10 uM by fluorescence assay relative to control; set-up: scale not given: the % may be the effect or the level left
[7] = Apparent permeability from apical to basolateral side in dog MDCK cells; format: ADME, cell-based, Canis lupus familiaris
[8] = In vivo inhibition of EP in diet induced obese C57BL/6J mouse assessed as increase in fecal protein content at 30 mg/kg, po measured after 24 hrs relative to control; format: functional
[9] = target: Enteropeptidase (Homo sapiens) (UniProt P98073); assay: Inhibition of full length recombinant human EP expressed in CHO cells assessed as ratio of Kinact/Kiapp; format: cell-based
Bos taurus [10] = species on record: Bos taurus; assay: Inhibition of bovine trypsin assessed as ratio of Kinact/Kiapp
[11] = Clearance in C57BL/6J mouse at 5 mg/kg, iv; format: ADME, organism-based; conditions: in vivo
[12] = Volume of distribution at steady state in C57BL/6J mouse at 5 mg/kg, iv; format: ADME, organism-based; conditions: in vivo, read-out: Vdss
[13] = Cmax in C57BL/6J mouse at 20 mg/kg, po; format: ADME, organism-based; set-up: route oral, dose 20 mg/kg; conditions: in vivo
[14] = AUClast in C57BL/6J mouse at 20 mg/kg, po; format: ADME, organism-based; set-up: route oral, time 0 - last, dose 20 mg/kg; conditions: in vivo
[15] = Oral bioavailability in C57BL/6J mouse at 20 mg/kg; format: ADME, organism-based; conditions: in vivo

Chain of Enteropeptidase (Homo sapiens) (P98073 2-784 limits assumed): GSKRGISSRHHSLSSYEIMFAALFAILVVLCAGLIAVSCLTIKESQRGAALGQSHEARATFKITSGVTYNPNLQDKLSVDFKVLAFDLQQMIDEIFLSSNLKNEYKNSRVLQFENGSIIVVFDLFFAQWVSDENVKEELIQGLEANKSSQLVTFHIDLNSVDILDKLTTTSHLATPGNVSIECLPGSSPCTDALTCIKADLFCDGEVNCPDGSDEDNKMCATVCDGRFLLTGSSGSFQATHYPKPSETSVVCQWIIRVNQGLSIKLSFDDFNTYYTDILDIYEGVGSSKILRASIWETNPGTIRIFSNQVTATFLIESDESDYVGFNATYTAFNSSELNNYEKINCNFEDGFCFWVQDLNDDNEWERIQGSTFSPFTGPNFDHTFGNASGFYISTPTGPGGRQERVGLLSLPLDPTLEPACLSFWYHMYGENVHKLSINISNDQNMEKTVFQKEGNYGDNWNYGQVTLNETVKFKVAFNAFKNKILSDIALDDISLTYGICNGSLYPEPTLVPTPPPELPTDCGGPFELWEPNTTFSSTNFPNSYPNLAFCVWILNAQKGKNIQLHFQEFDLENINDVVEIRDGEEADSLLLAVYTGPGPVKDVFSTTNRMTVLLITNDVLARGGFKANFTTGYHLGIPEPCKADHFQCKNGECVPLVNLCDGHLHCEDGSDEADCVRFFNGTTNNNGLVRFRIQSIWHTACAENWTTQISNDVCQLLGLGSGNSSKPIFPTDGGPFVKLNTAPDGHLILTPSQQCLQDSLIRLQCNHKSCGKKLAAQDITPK
Chain of Enteropeptidase (Homo sapiens) (P98073 785-1019 limits assumed): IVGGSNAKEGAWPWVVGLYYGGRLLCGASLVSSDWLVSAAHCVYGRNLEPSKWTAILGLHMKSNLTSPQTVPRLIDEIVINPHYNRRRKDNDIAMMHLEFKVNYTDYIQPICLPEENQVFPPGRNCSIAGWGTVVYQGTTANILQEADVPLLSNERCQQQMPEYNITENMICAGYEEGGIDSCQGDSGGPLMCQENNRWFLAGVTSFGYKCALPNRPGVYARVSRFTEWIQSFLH

| SMILES | Activity [1] | Activity [2] | Activity [3] | Activity (Bos taurus [4]) | Activity (Bos taurus [5]) | Activity (Bos taurus [6]) | Papp A→B [7] | Ratio [9] | Ratio (Bos taurus [10]) | clearance [11] | Vd [12] | Cmax [13] | AUC(0-t) [14] | bioavailability [15] | fold change (FC) [8] |
| --- | --- | --- | --- | --- | --- | --- | --- | --- | --- | --- | --- | --- | --- | --- | --- |
| N=C(N)Nc1ccc(C(=O)Oc2ccc(CC(=O)N[C@@H](CC(=O)O)C(=O)O)n3ncnc23)cc1 | 48.3% | 101% | 101% | 98.3% | 100% | 100% | 0.56 ×10⁻⁶ cm/s | – | – | – | – | – | – | – | 2.4 |
| N=C(N)Nc1ccc(C(=O)Oc2ccc(CC(=O)NC(CC(=O)O)(CC(=O)O)CC(=O)O)n3ncnc23)cc1 | 37.8% | 100% | 100% | 94.1% | 100% | 100% | 1.09 ×10⁻⁶ cm/s | – | – | – | – | – | – | – | 1.7 |
| N=C(N)Nc1ccc(C(=O)Oc2ccc(CC(=O)O)n3ncnc23)cc1F | 96.8% | 100% | 100% | 87.6% | 100% | 100% | – | 72800 M⁻¹ s⁻¹ | 69700 M⁻¹ s⁻¹ | – | – | – | – | – | – |
| N=C(N)Nc1ccc(C(=O)Oc2cc(CCC(=O)O)cn3ncnc23)cc1 | 45.2% | 103% | 101% | 99.2% | 100% | 100% | 1.12 ×10⁻⁶ cm/s | – | – | – | – | – | – | – | – |
| C#CCOCCOCC#Cc1ccc(CC(=O)O)n2ncnc12 | 63% | 98.5% | 99.8% | 52.9% | 99.6% | 100% | – | 52800 M⁻¹ s⁻¹ | 59400 M⁻¹ s⁻¹ | – | – | – | – | – | – |

Second part, led by results:

| Activity [1] | Activity [2] | Activity [3] | Activity (Bos taurus [4]) | Activity (Bos taurus [5]) | Activity (Bos taurus [6]) | Papp A→B [7] | Ratio [9] | Ratio (Bos taurus [10]) | clearance [11] | Vd [12] | Cmax [13] | AUC(0-t) [14] | bioavailability [15] | SMILES | fold change (FC) [8] |
| --- | --- | --- | --- | --- | --- | --- | --- | --- | --- | --- | --- | --- | --- | --- | --- |
| 101% | 100% | 100% | 96.3% | 101% | 101% | 1.48 ×10⁻⁶ cm/s | 210000 M⁻¹ s⁻¹ | 111000 M⁻¹ s⁻¹ | – | – | – | – | – | N=C(N)Nc1ccc(C(=O)Oc2ccc(CC(=O)O)n3ccnc23)cc1 | – |
| 48.1% | 101% | 100% | 99.7% | 100% | 100% | 1.03 ×10⁻⁶ cm/s | – | – | – | – | – | – | – | N=C(N)Nc1ccc(C(=O)Oc2ccc(CC(=O)NCC(=O)O)n3ncnc23)cc1 | – |
| 20.9% | 72.9% | 101% | 89.6% | 99.9% | 100% | 1.26 ×10⁻⁶ cm/s | – | – | – | – | – | – | – | N=C(N)Nc1ccc(C(=O)Oc2ccc(CC(=O)N(CC(=O)O)CC(=O)O)n3ncnc23)cc1 | 1.5 |
| 27.6% | 95.1% | 100% | 61% | 100% | 100% | – | 24400 M⁻¹ s⁻¹ | – | – | – | – | – | – | N=C(N)Nc1ccc(C(=O)Oc2ccc(CCC(=O)O)n3ccnc23)cc1 | – |
| 97.8% | 100% | 100% | 97.2% | 100% | 100% | 1.53 ×10⁻⁶ cm/s | 130000 M⁻¹ s⁻¹ | 159000 M⁻¹ s⁻¹ | 192 mL/min/kg | 3.68 L/kg | 43 ng/mL | 27 ng·h/mL | 1.6% | N=C(N)Nc1ccc(C(=O)Oc2ccc(CC(=O)O)n3ncnc23)cc1 | 2.4 |
| 101% | 100% | 100% | 98.8% | 100% | 99.9% | 0.51 ×10⁻⁶ cm/s | 181000 M⁻¹ s⁻¹ | 163000 M⁻¹ s⁻¹ | – | – | – | – | – | CS(=O)(=O)NC(=O)Cc1ccc(OC(=O)c2ccc(NC(=N)N)cc2)c2ncnn12 | – |

From ChEMBL document CHEMBL4819050, “Discovery of a novel series of guanidinebenzoates as gut-restricted enteropeptidase and trypsin dual inhibitors for the treatment of metabolic syndrome” (Bioorg Med Chem Lett, 2021)
